# Measured values published in US9708336B2, “Metallo-beta-lactamase inhibitors” (priority 2014, dated 2017).
# Read-outs that look alike come from different tables or passages of the source.
# Key:
# [1] = molecular target: NDM-1 (Klebsiella pneumoniae, UniProt C7C422); assay: biochemical; type: biochemical
# [2] = molecular target: IMP-1 (Serratia marcescens, UniProt P52699); assay: biochemical; type: biochemical; details: read-out: IMP-1 IC50
# [3] = molecular target: VIM-1 (Pseudomonas aeruginosa (strain ATCC 15692 / DSM 22644 / CIP 104116 / JCM 14847 / LMG 12228 / 1C / PRS 101 / PAO1), UniProt A0A0F7KYQ8); assay: Enzyme activity: determination of IC50, fluorescence assay with CCF2-FA substrate (VIM-1); type: biochemical
# [4] = system: Escherichia coli expressing NDM-1 (CLB30016); assay: Antibiotic potentiation activity: synergistic concentration (MITC95) with imipenem, OD600 growth; type: cell-based; details: for Escherichia coli MITC95: 95% growth inhibition; for Escherichia coli expressing NDM-1 (CLB 30016) MITC95: concentration giving 95% inhibition of bacterial growth
# In short: (§1)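 Test compound was combined with 4 μg/ml imipenem (or optionally 1 μg/ml), or with no antibiotic, against saline-suspended colonies diluted 1:100 in 1.1×CAMHB. Strains were E. coli NDM-1, S. marcescens IMP-1 and K. pneumoniae VIM-1. Plates were incubated 22–24 h at 35 °C before absorbance (OD600) readout.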
# [5] = system: Klebsiella pneumoniae expressing VIM-1 (IHMA599644); assay: as above; type: cell-based; details: for Klebsiella pneumoniae MITC95: 95% growth inhibition; for Klebsiella pneumoniae expressing VIM-1 (IHMA 599644) MITC95: concentration giving 95% inhibition of bacterial growth
# In short: as §1
# [6] = system: Serratia marcescens expressing IMP-1 (CL5741); assay: as above; type: cell-based; details: for Serratia marcescens MITC95: 95% growth inhibition; for Serratia marcescens expressing IMP-1 (CL5741) MITC95: concentration giving 95% inhibition of bacterial growth
# In short: as §1
# [7] = NDM-1 enzyme, CCF2-FA fluorescence assay, read-out: NDM-1 IC50
# [8] = IMP-1 enzyme, CCF2-FA fluorescence assay
# [9] = VIM-1 enzyme, CCF2-FA fluorescence assay, read-out: VIM-1 IC50
# [10] = Escherichia coli expressing NDM-1 (CLB30016)
# [11] = Klebsiella pneumoniae expressing VIM-1 (IHMA599644)
# [12] = Serratia marcescens expressing IMP-1 (CL5741)
# [13] = fluorescence assay with CCF2-FA substrate, read-out: NDM-1 IC50
# [14] = fluorescence assay with CCF2-FA substrate
# [15] = fluorescence assay with CCF2-FA substrate, read-out: VIM-1 IC50
# [16] = IMP-1 enzyme, CCF2-FA substrate
# [17] = VIM-1 IC50, VIM-1 enzyme, CCF2-FA substrate
# [18] = Klebsiella pneumoniae IHMA599644 (VIM-1)
# [19] = Serratia marcescens CL5741 (IMP-1)
# [20] = NDM-1 enzyme, CCF2-FA substrate, read-out: NDM-1 IC50
# [21] = VIM-1 enzyme, CCF2-FA substrate, read-out: VIM-1 IC50
# Chain of NDM-1 (C7C422 whole entry, looked up, species assumed): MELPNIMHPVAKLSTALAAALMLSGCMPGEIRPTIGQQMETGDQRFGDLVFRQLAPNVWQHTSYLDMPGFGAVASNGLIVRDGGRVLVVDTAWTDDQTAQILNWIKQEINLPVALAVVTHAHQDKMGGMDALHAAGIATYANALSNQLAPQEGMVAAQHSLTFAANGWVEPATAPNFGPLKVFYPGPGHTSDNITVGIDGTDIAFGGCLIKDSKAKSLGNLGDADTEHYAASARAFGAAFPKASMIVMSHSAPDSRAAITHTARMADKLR
# Chain of IMP-1 (P52699 whole entry, looked up): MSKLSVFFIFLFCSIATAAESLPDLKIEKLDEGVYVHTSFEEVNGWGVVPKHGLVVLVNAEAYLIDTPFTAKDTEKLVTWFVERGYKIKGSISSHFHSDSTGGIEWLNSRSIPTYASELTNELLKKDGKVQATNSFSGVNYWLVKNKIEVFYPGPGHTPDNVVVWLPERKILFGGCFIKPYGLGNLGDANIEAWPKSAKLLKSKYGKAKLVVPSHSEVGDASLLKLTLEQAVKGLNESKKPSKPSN
Compound,"IC50 [1, 7] [nM]","IC50 [2, 8] [nM]","IC50 [3, 9] [nM]","Escherichia coli MITC95 [4, 10] [µM]","Klebsiella pneumoniae MITC95 [5, 11] [µM]","Serratia marcescens MITC95 [6, 12] [µM]","IC50 [2, 16] [nM]","Escherichia coli MITC95 ([4]; (CLB30016, NDM-1)) [µM]","Klebsiella pneumoniae MITC95 [5, 18] [µM]","Serratia marcescens MITC95 [6, 19] [µM]","IC50 [1, 20] [nM]",also measured
"NS(=O)(=O)c1cccc(-c2ccc(CN3C[C@H](O)C[C@H]3CO)cc2)c1-c1nnn[nH]1 [Example 387, 4′-{[(2S,4R)-4-hydroxy-2-(hydroxymethyl)pyrrolidin-1-yl]methyl}-2-(1H-tetrazol-5-yl)biphenyl-3-sulfonamide]",10.6,145,445,2.344,100,3.125,,,,,,
"Nc1cccn2c(-c3cccc(S(N)(=O)=O)c3-c3nnn[nH]3)cnc12 [Example 418, 3-(8-aminoimidazo[1,2-a]pyridin-3-yl)-2-(1H-tetrazol-5-yl)benzenesulfonamide]",1.18,118,13,0.3906,6.25,6.25,,,,,,
"Cc1ccc(Cc2cccc(S(N)(=O)=O)c2-c2nnn[nH]2)cc1 [Example 163, 3-(4-methylbenzyl)-2-(1H-tetrazol-5-yl)benzenesulfonamide]",,,,,,,,,,,,"IC50 [1, 13]: 17.7 nM; IC50 [2, 14]: 327 nM; IC50 [3, 15]: 437 nM; Escherichia coli expressing NDM-1 (CLB 30016) MITC95 [4]: 3.125 µM; Klebsiella pneumoniae expressing VIM-1 (IHMA 599644) MITC95 [5]: >200 µM; Serratia marcescens expressing IMP-1 (CL5741) MITC95 [6]: 12.5 µM"
"NS(=O)(=O)c1cccc(-c2ccc(CNCCc3ncc[nH]3)cc2)c1-c1nnn[nH]1 [Example 382, 4′-({[2-(1H-imidazol-2-yl)ethyl]amino}methyl)-2-(1H-tetrazol-5-yl)biphenyl-3-sulfonamide]",12.8,212,220,1.563,50,3.125,,,,,,
"Cn1cc2cc(-c3cccc(S(N)(=O)=O)c3-c3nnn[nH]3)ccc2n1 [Example 127, 3-(2-methyl-2H-indazol-5-yl)-2-(1H-tetrazol-5-yl)benzenesulfonamide]",,,,,,,,,,,,"IC50 [1, 13]: 1.11 nM; IC50 [2, 14]: 157 nM; IC50 [3, 15]: 84.2 nM; Escherichia coli expressing NDM-1 (CLB 30016) MITC95 [4]: 1.172 µM; Klebsiella pneumoniae expressing VIM-1 (IHMA 599644) MITC95 [5]: 37.5 µM; Serratia marcescens expressing IMP-1 (CL5741) MITC95 [6]: 4.688 µM"
"NS(=O)(=O)c1c(C(F)(F)F)ccc([C@H]2CC[C@H](C3=NCCN3)CC2)c1-c1nnn[nH]1 [Example 506, 3-(trans 4-(4,5-dihydro-1H-imidazol-2-yl)cyclohexyl)-2-(1H-tetrazol-5-yl)-6-(trifluoromethyl)benzenesulfonamide]",,,,,,,35.7,4.688,100,6.25,,"IC50 [1]: 2.22 nM; IC50 [3, 17]: 41.4 nM"
"NS(=O)(=O)c1c(C(F)(F)F)ccc(-c2cccc3cnccc23)c1-c1nn[nH]n1 [Example 515, 3-(Isoquinolin-5-yl)-2-(2H-tetrazol-5-yl)-6-(trifluoromethyl)benzenesulfonamide]",,,,,,,3.68,4.688,6.25,0.3906,0.603,"IC50 [3, 17]: 0.309 nM"
"NCCCCCNc1nc2c(-c3cccc(S(N)(=O)=O)c3-c3nnn[nH]3)cccc2s1 [Example 644, 3-[2-(5-aminopentylamino)-1,3-benzothiazol-4-yl]-2-(1H-tetrazol-5-yl)benzenesulfonamide]",,,,,,,32.4,4.688,75,37.5,1.34,"IC50 [3, 17]: 13.8 nM"
"NS(=O)(=O)c1cccc(-c2cnc3ccc(Cl)nn23)c1-c1nnn[nH]1 [Example 652, 3-(6-chloroimidazo[1,2-b]pyridazin-3-yl)-2-(1H-tetrazol-5-yl)benzenesulfonamide]",,,,,,,167,1.563,25,12.5,5.37,"IC50 [3, 21]: 27.4 nM"
"NS(=O)(=O)c1c(CC[C@H]2CC[C@H](N)CC2)ccc(-c2ccc(C3CCNCC3)cc2)c1-c1nn[nH]n1 [Example 461, 4-(2-((1r,4s)-4-aminocyclohexyl)ethyl)-4′-(piperidin-4-yl)-2-(2H-tetrazol-5-yl)-[1,1′-biphenyl]-3-sulfonamide]",1.92,4.07,1.67,1.563,4.688,1.563,,,,,,
"NS(=O)(=O)c1c(C(F)(F)F)ccc(-c2ccc(C3CCN(CC4CCCNC4)CC3)cc2)c1-c1nnn[nH]1 (stereo not drawn) [Example 673, 4′-[1-(piperidin-3-ylmethyl)piperidin-4-yl]-2-(1H-tetrazol-5-yl)-4-(trifluoromethyl)biphenyl-3-sulfonamide]",,,,,,,1.35,3.125,62.5,3.125,10.1,"IC50 [3, 21]: 9.07 nM"
"N=C(N)NC1Cc2ccc(-c3ccc(C(F)(F)F)c(S(N)(=O)=O)c3-c3nn[nH]n3)cc2C1 (stereo not drawn) [Example 447, 3-(2-guanidino-2,3-dihydro-1H-inden-5-yl)-2-(2H-tetrazol-5-yl)-6-(trifluoromethyl)benzenesulfonamide]",7.13,4.26,0.171,1.086,0.8906,0.125,,,,,,
"NC1CCC(N[C@H]2CC[C@H](c3ccc(C(F)(F)F)c(S(N)(=O)=O)c3-c3nnn[nH]3)CC2)CC1 (stereo partly drawn) [Example 690, 3-{4-[(4-aminocyclohexyl)amino]cyclohexyl}-2-(1H-tetrazol-5-yl)-6-(trifluoromethyl)benzene sulfonamide]",,,,,,,75.9,1.563,25,3.125,12.6,"IC50 [3, 17]: 5.26 nM"
"Nc1cc(-c2cccc(S(N)(=O)=O)c2-c2nnn[nH]2)cc(N)n1 [Example 133, 3-(2,6-diaminopyridin-4-yl)-2-(1H-tetrazol-5-yl)benzenesulfonamide]",,,,,,,,,,,,"IC50 [1, 13]: 21.6 nM; IC50 [2, 14]: 4920 nM; IC50 [3, 15]: 108 nM; Escherichia coli expressing NDM-1 (CLB 30016) MITC95 [4]: 0.3906 µM; Klebsiella pneumoniae expressing VIM-1 (IHMA 599644) MITC95 [5]: 6.25 µM; Serratia marcescens expressing IMP-1 (CL5741) MITC95 [6]: 37.5 µM"
"NS(=O)(=O)c1c(C(F)(F)F)ccc(N2CCCC(CO)C2)c1-c1nnn[nH]1 (stereo not drawn) [Example 659, 3-[3-(hydroxymethyl)piperidin-1-yl]-2-(1H-tetrazol-5-yl)-6-(trifluoromethyl)benzenesulfonamide]",,,,,,,36.3,15.63,25,2.344,18.8,"IC50 [3, 21]: 6.4 nM"
"CN(C)CCNc1nc2c(-c3cccc(S(N)(=O)=O)c3-c3nn[nH]n3)cccc2s1 [Example 640, 3-[2-[2-(dimethylamino)ethylami-no]-1,3-benzothiazol-4-yl]-2-(2H-tetrazol-5-yl)benzenesulfonamide]",,,,,,,194,1.563,100,100,0.855,"IC50 [3, 21]: 9.84 nM"
